Earlier results as cited in patent publication US20120178757A1, “Method For The Prevention Of Cancer Metastasis” (NOTTINGHAM UNIVERSITY HOSPITALS NHS TRUST, priority 2010, published 2012).
Entries after “also recorded” stand apart in the source; their conditions may differ.

Experiments:
breast cancer cells = settings: in vitro breast cancer cells
prostate cancer = settings: coincidental treatment for hypertension or benign prostate hyperplasia
[1] = system: carcinoma cell lines of colon, prostate, ovary and breast; settings: adrenoceptor-mediated, norepinephrine-induced migration of cancer cells
[2] = system: human pancreatic cell lines

SMILES	apoptosis (breast cancer cells)	proliferation (breast cancer cells)	incidence of prostate cancer (prostate cancer)	cell migration [1]	proliferation [2]
COc1cc2nc(N3CCN(C(=O)C4COc5ccccc5O4)CC3)nc(N)c2cc1OC (stereo not drawn) [doxazosin, Doxazosin]	induce apoptosis	inhibit proliferation	significantly lowered the incidence of prostate cancer		
CC(C)NCC(O)COc1cccc2ccccc12 (stereo not drawn) [propranolol, Propranolol]				can be inhibited; also recorded: is inhibited	can reduce proliferation
COc1cc2nc(N3CCN(C(=O)C4CCCO4)CC3)nc(N)c2cc1OC (stereo not drawn) [terazosin, Terazosin]			significantly lowered the incidence of prostate cancer		
